This experiment deals with T1, Adrenergic β2 (Homo sapiens, UniProt P07550).
T1 construct: Adherent H292 cells were removed from tissue culture flasks; endogenous in cells; host or cells: H292 cells
As to the kind of experiment: Adrenergic β2 mediated cAMP production in H292 cells (AlphaScreen cAMP detection). Type of experiment: cell-based. As to conditions: Intrinsic Activity, fraction relative to the maximum activity determined for formoterol. As to the method: Adrenergic β2 Mediated cAMP Production
H292 cells were grown in 225 cm2 flasks incubator at 37° C., 5% CO2 in RPMI medium containing, 10% (v/v) FBS (foetal bovine serum) and 2 mM L-glutamine.
Adherent H292 cells were removed from tissue culture flasks by treatment with Accutase™ cell detachment solution for 15 minutes. Flasks were incubated for 15 minutes in a humidified incubator at 37° C., 5% CO2. Detached cells were re-suspended in RPMI media (containing 10% (v/v) FBS and 2 mM L-glutamine) at 0.05×10^6 cells per mL. 5000 cells in 100 μL were added to each well of a tissue-culture-treated 96-well plate and the cells incubated overnight in a humidified incubator at 37° C., 5% CO2. The culture media was removed and cells were washed twice with 100 μL assay buffer and replaced with 50 μL assay buffer (HBSS solution containing 10 mM HEPES pH 7.4 and 5 mM glucose). Cells were rested at room temperature for 20 minutes after which time 25 μL of rolipram (1.2 mM made up in assay buffer containing 2.4% (v/v) dimethylsulphoxide) was added. Cells were incubated with rolipram for 10 minutes after which time test compounds were added and the cells were incubated for 60 minutes at room temperature. The final rolipram concentration in the assay was 300 μM and final vehicle concentration was 1.6% (v/v) dimethylsulphoxide. The reaction was stopped by removing supernatants, washing once with 100 μL assay buffer and replacing with 50 μL lysis buffer. The cell monolayer was frozen at −80° C. for 30 minutes (or overnight).
The concentration of cAMP (cyclic adenosine monophosphate) in the cell lysate was determined using AlphaScreen™ methodology. The frozen cell plate was thawed for 20 minutes on a plate shaker then 10 μL of the cell lysate was transferred to a 96-well white plate. 40 μL of mixed AlphaScreen™ detection beads pre-incubated with biotinylated cAMP, was added to each well and the plate incubated at room temperature for 10 hours in the dark. The AlphaScreen™ signal was measured using an EnVision spectrophotometer (Perkin-Elmer Inc.) with the recommended manufacturer's settings. cAMP concentrations were determined by reference to a calibration curve determined in the same experiment using standard cAMP concentrations. Concentration response curves for agonists were constructed and data was fitted to a four parameter logistic equation to determine both the pEC50 and Intrinsic Activity. Intrinsic Activity was expressed as a fraction relative to the maximum activity determined for formoterol in each experiment.
(In general: Changes in cAMP serve as a functional read-out for many G protein-coupled receptors.)

Each structure is given as a SMILES string. Counter-ions that a name gives are not always drawn.

We go through 10 compounds from US7700782B2, “Compounds 569” (AstraZeneca AB, priority 2007, dated 2010).

T1 sequence (P07550 whole entry): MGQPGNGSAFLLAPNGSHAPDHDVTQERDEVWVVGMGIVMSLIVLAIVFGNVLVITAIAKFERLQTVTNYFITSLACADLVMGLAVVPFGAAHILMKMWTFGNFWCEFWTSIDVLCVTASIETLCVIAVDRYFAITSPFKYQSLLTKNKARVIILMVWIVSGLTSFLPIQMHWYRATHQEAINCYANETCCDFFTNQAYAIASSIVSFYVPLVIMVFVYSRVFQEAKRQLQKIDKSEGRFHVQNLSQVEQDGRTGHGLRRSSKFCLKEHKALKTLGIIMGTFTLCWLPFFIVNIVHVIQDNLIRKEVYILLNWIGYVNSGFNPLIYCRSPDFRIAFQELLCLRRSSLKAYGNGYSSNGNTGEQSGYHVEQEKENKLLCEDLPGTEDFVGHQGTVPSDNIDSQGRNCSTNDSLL

For `O=C(CCNCCc1ccccn1)N(CCNCCc1ccc(O)c2[nH]c(=O)sc12)C1CCCCC1` [Example 33, N-Cyclohexyl-N-(2-{[2-(4-hydroxy-2-oxo-2,3-dihydro-1,3-benzothiazol-7-yl)ethyl]amino}ethyl)-N^3-(2-pyridin-2-ylethyl)-β-alaninamide bis-trifluoroacetic acid salt], the “β2 Int Act” value was determined as 0.78. Regarding `COc1ccc(CCNCCC(=O)N(CCNCCc2ccc(O)c3[nH]c(=O)sc23)C2CCCCC2)cc1` [Example 68, N^1-Cyclohexyl-N^1-(2-{[2-(4-hydroxy-2-oxo-2,3-dihydro-1,3-benzothiazol-7-yl)ethyl]amino}ethyl)-N^3-[2-(4-methoxyphenyl)ethyl]-β-alaninamide bis-trifluoroacetic acid salt], the “β2 Int Act” value is reported as 0.68. Next, `O=C(CCNCCc1ccccc1)N(CCNCCc1ccc(O)c2[nH]c(=O)sc12)C1CCCCC1` [Example 5, N-Cyclohexyl-N-(2-{[2-(4-hydroxy-2-oxo-2,3-dihydro-1,3-benzothiazol-7-yl)ethyl]amino}ethyl)-N^3-(2-phenylethyl)-β-alaninamide bis-trifluoroacetic acid salt]: 0.83; `CC(C)(Cc1ccccc1)NCCC(=O)N(CCNCCc1ccc(O)c2[nH]c(=O)sc12)C1CCCCC1` [Example 19, N-Cyclohexyl-N^3-(1,1-dimethyl-2-phenylethyl)-N-(2-{[2-(4-hydroxy-2-oxo-2,3-dihydro-1,3-benzothiazol-7-yl)ethyl]amino}ethyl)-β-alaninamide bis-trifluoroacetic acid salt]: 0.70.

`O=C(CCNCCc1cccc(F)c1F)N(CCNCCc1ccc(O)c2[nH]c(=O)sc12)C1CCCCC1` [Example 81, N^1-Cyclohexyl-N^3-[2-(2,3-difluorophenyl)ethyl]-N^1-(2-{[2-(4-hydroxy-2-oxo-2,3-dihydro-1,3-benzothiazol-7-yl)ethyl]amino}ethyl)-β-alaninamide bis-trifluoroacetic acid salt]: the “β2 Int Act” value was found to be 0.89. Next, `Cc1cccc(CCNCCC(=O)N(CCNCCc2ccc(O)c3[nH]c(=O)sc23)C2CCCCC2)c1` [Example 14, N-Cyclohexyl-N-(2-{[2-(4-hydroxy-2-oxo-2,3-dihydro-1,3-benzothiazol-7-yl)ethyl]amino}ethyl)-N^3-[2-(3-methylphenyl)ethyl]-β-alaninamide bis-trifluoroacetic acid salt]: 0.84; `O=C(CCNCCc1cccc(F)c1F)N(CCNCCc1ccc(O)c2[nH]c(=O)sc12)C1CCCCCC1` [Example 56, N^1-Cycloheptyl-N^3-[2-(2,3-difluorophenyl)ethyl]-N^1-(2-{[2-(4-hydroxy-2-oxo-2,3-dihydro-1,3-benzothiazol-7-yl)ethyl]amino}ethyl)-β-alaninamide bis-trifluoroacetic acid salt]: 0.86. Turning to `COc1cccc(CCNCCC(=O)N(CCNCCc2ccc(O)c3[nH]c(=O)sc23)C2CCCCC2)c1` [Example 70, N^1-Cyclohexyl-N^1-(2-{[2-(4-hydroxy-2-oxo-2,3-dihydro-1,3-benzothiazol-7-yl)ethyl]amino}ethyl)-N^3-[2-(3-methoxyphenyl)ethyl]-β-alaninamide bis-trifluoroacetic acid salt], the “β2 Int Act” value amounted to 0.84. Next, `O=C(CCNCCc1ccccc1)N(CCNCCc1ccc(O)c2[nH]c(=O)sc12)C1CCCCCC1` [Example 23, N-Cycloheptyl-N-(2-{[2-(4-hydroxy-2-oxo-2,3-dihydro-1,3-benzothiazol-7-yl)ethyl]amino}ethyl)-N^3-(2-phenylethyl)-β-alaninamide bis-trifluoroacetic acid salt]: 0.85; `O=C(CCNCCc1ccc(Cl)c(Cl)c1)N(CCNCCc1ccc(O)c2[nH]c(=O)sc12)C1CCC(F)(F)CC1` [Example 49, N^3-[2-(3,4-Dichlorophenyl)ethyl]-N^1-(4,4-difluorocyclohexyl)-N^1-(2-{[2-(4-hydroxy-2-oxo-2,3-dihydro-1,3-benzothiazol-7-yl)ethyl]amino}ethyl)-β-alaninamide bis-trifluoroacetic acid salt]: 0.59.
